Activity and IC50 data for 6 compounds are collected here from ChEMBL document CHEMBL4219089, “Targeting RORs nuclear receptors by novel synthetic steroidal inverse agonists for autoimmune disorders” (Bioorg Med Chem, 2018).

The term IC50 denotes the point on the concentration scale where inhibition reaches its midpoint. Read a high IC50 as a need for much substance.

The test system of data set [1] is HepG2. Briefly: Cytotoxicity against human HepG2 cells assessed as effect on cell viability at 6.25 uM after 24 hrs by MTT assay. It counts as cell-based. To be noted: hepg2, 24 h. For orientation: Formazan colour is commonly taken as a measure of viable cells.
In data set [2] the test system is HEK293. Briefly: Cell cycle arrest in HEK293 cells at 10 to 20 uM after 24 hrs by propidium iodide staining based flow cytometric method. Conditions: human, hek293, 24 h; call rule not given here.
Data set [3] has as its system HepG2. As to the kind of experiment: Cytotoxicity against human HepG2 cells assessed as effect on cell viability at 6.25 to 50 uM after 24 hrs by MTT assay. Format: cell-based. Conditions: hepg2, 24 h.
Data set [4] has as its system HEK293. As to the kind of experiment: Cell cycle arrest in HEK293 cells expressing GAL4-fused RORgammat at 10 to 20 uM after 24 hrs by propidium iodide staining based flow cytometric method. It counts as ADME. Conditions: human, hek293, 24 h. On the technique in general: Flow cytometry measures light scatter and fluorescence of single cells or particles in a stream.

Data set [5] deals with HEK293. Briefly: Cytotoxicity against HEK293 cells expressing GAL4-fused RORgammat assessed as effect on cell viability at 10 to 20 uM after 24 hrs by MTT assay. It counts as cell-based. To be noted: human, hek293, 24 h.
Data set [6] has as its system HEK293. Briefly: Cytotoxicity against HEK293 cells assessed as effect on cell viability at 10 to 20 uM after 24 hrs by MTT assay. Format: cell-based. To be noted: human, hek293, 24 h.
The target of data set [7] is T1, Nuclear receptor ROR-gamma (Homo sapiens, UniProt P51449).
T1 sequence (P51449 whole entry): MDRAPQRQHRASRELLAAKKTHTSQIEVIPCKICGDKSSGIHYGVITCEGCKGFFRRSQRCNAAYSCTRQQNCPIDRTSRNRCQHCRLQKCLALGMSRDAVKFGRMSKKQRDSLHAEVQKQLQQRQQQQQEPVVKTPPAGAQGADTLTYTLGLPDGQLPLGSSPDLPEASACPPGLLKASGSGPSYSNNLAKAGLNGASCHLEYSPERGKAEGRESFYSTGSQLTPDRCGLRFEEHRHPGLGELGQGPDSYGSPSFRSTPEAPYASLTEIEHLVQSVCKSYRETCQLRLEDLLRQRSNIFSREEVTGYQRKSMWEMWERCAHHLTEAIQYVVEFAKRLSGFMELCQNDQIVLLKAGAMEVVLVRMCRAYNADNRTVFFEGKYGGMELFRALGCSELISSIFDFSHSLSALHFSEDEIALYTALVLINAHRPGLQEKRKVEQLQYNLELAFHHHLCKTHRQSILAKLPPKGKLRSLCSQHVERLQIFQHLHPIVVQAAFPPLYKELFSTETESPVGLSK
Briefly: (§1) Inverse agonist activity at Gal4-fused RORgammat LBD (unknown origin) expressed in HEK293 cells measured after 48 hrs post transfection by dual-luciferase reporter gene assay. It counts as cell-based. Background: In a reporter assay the amount or activity of a reporter protein is the signal.

In data set [8] the target is T2, Nuclear receptor ROR-gamma (Homo sapiens) (UniProt P51449).
T2 sequence (whole entry): T1 sequence (P51449 whole entry)
Described as §1. Format: cell-based.

The subject of data set [9] is HepG2. As to the kind of experiment: Cell cycle arrest in human HepG2 cells at 10 to 20 uM after 24 hrs by propidium iodide staining based flow cytometric analysis. It counts as ADME. To be noted: hepg2, 24 h.
In data set [10] the target is T3, Estrogen receptor (Homo sapiens, UniProt P03372).
T3 sequence (P03372 whole entry): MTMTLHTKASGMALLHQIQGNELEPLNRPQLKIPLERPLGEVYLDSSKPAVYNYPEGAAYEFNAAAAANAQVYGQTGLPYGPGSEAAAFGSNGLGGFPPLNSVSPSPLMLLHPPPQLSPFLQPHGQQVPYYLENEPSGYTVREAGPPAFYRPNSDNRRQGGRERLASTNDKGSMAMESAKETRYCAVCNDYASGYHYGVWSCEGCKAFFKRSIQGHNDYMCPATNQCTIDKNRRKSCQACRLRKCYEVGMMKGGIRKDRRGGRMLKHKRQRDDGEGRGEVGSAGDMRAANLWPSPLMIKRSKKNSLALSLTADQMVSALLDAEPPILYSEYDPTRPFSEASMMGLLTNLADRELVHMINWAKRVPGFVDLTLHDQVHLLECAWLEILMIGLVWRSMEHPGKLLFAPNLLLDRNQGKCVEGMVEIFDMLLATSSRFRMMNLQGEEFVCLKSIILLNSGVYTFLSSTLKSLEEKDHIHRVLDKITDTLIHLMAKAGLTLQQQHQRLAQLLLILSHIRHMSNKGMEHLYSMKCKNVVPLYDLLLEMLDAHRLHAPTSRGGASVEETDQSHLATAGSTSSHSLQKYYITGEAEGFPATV
Briefly: Estrogenic activity at estrogen receptor in human MCF7 cells assessed as increase in GREB1 gene expression at 2 uM after 24 hrs by qRT-PCR analysis. Format: ADME, cell-based. Conditions: mcf7, 24 h.

In data set [11] the test system is HepG2. As to the kind of experiment: Cytotoxicity against human HepG2 cells assessed as effect on cell viability at 25 to 50 uM after 24 hrs by MTT assay. It counts as cell-based. Conditions: hepg2, 24 h.
The target of data set [12] is T3, Estrogen receptor. As to the kind of experiment: Estrogenic activity at estrogen receptor in human MCF7 cells assessed as increase in CXCL12 gene expression at 2 uM after 24 hrs by qRT-PCR analysis. Conditions: mcf7, 24 h. It counts as ADME, cell-based.

The structures appear in SMILES notation.

In the case of `C[C@]12CC[C@@H]3c4cc(-c5ccccc5)c(O)cc4CC[C@H]3[C@@H]1CC(C(=O)O)C2O` (stereo not given in full), the Activity entry in the data set on HepG2 [1] is reported as “Toxic”.
`C[C@]12CC[C@@H]3c4cc(-c5cccc6c5oc5ccccc56)c(O)cc4CC[C@H]3[C@@H]1CC(C(=O)O)C2O` (stereo not given in full): the Activity entry in the data set on HEK293 [2] was “Non-Toxic”; in the data set on HepG2 [3] it was “Non-Toxic”; with HEK293 [4], “Non-Toxic”; in the data set on HEK293 [5], “Non-Toxic”; in the data set on HEK293 [6] it was “Non-Toxic”; in [8], “Dose-dependent effect”. Further, the Activity entry in the data set with HepG2 [9] is recorded as “Non-Toxic”. The compound further gave an IC50 in data set [7] of 4.7 µM.
As to `C[C@]12CC[C@@H]3c4cc(-c5ccc(-c6ccccc6)cc5)c(O)cc4CC[C@H]3[C@@H]1CC(C(=O)O)C2O` (stereo not given in full), the Activity entry with HepG2 [1] is “Toxic”.
For the compound `C[C@@]12C=C(C(=O)O)C[C@H]1[C@@H]1CCc3cc(O)c(C(=O)c4ccccc4)cc3[C@H]1CC2`, the Activity entry with HEK293 [2] was “Non-Toxic”; in the data set on HEK293 [4] it was “Non-Toxic”; with HEK293 [5], “Non-Toxic”; at Estrogen receptor [10] it was “Not Active”; in the data set on HepG2 [11], “Toxic”; in the data set on HEK293 [6], “Non-Toxic”. In addition, the results for the Activity entry (in data set [8]; on Estrogen receptor [12]; in the data set with HepG2 [9]) were “Dose-dependent effect”, “Not Active” and “Non-Toxic”, respectively. Also, in data set [7], the IC50 was 4.4 µM.
Regarding `C[C@@]12C=C(C(=O)O)C[C@H]1[C@@H]1CCc3cc(O)c(C45CC6CC(CC(C6)C4)C5)cc3[C@H]1CC2`, the Activity entry in the data set with HEK293 [2] is “Non-Toxic”; in the data set with HepG2 [3] it was “Non-Toxic”; in the data set on HEK293 [4] it was “Non-Toxic”; with HEK293 [5] it was “Non-Toxic”; on Estrogen receptor [10], “Active”; with HEK293 [6], “Non-Toxic”. Also, the Activity result was “Dose-dependent effect” in data set [8], “Active” on Estrogen receptor [12] and “Non-Toxic” with HepG2 [9]. Also, in [7], the half-maximal inhibitory concentration (IC50) is 6.5 µM.
As for `COc1cc2c(cc1C13CC4CC(CC(C4)C1)C3)[C@H]1CC[C@]3(C)C=C(C(=O)O)C[C@H]3[C@@H]1CC2`, the Activity entry in the data set with HEK293 [2] is “Non-Toxic”; in the data set with HepG2 [3], “Non-Toxic”; in the data set on HEK293 [4], “Non-Toxic”; with HEK293 [5], “Non-Toxic”; at Estrogen receptor [10] it was “Not Active”; in the data set on HEK293 [6], “Non-Toxic”. The Activity entry in data set [8] is “Dose-dependent effect”; at Estrogen receptor [12] it was “Not Active”; in the data set on HepG2 [9] it was “Non-Toxic”. Further, the IC50 in [7] came to 6.8 µM.
